As usually defined, the IC50 is the midpoint of a concentration-inhibition curve. Read a low IC50 as higher potency.

From patent publication EP4644384A1 (Shanghai Lichun Biotech Co., Ltd., priority 2023, dated 2024) come the findings set out here.

Data set [1] is described as follows: Pharmacokinetic evaluation in ICR mice after intragastric administration (plasma, LC/MS/MS). It counts as in vivo. The settings on record: mouse, po, male ICR mice, i.g., 20 mg/kg; for AUC(0-t): read-out: Area under the curve AUC0-t; for half-life: read-out: Half-life T1/2 (converted); for Cmax: read-out: Plasma concentration Cmax. Here is the method:
Taking ICR mice as test animals, the drug concentration in plasma of ICR mice was determined by LC/MS/MS method at different times after intragastric administration (i.g.) with the compound of the present disclosure. The pharmacokinetic behavior of the compound of the present disclosure in ICR mice was studied and the pharmacokinetic characteristics thereof were evaluated.
27 male ICR mice were taken and randomly divided into three groups. The mice were provided by JOINN Laboratories (Suzhou) Co., Ltd. Before administration, the mice were fasted overnight for at least 12 hours. During the fasting and experiment, the drinking water was normal saline.
A certain amount of the compound to be tested was taken, and the test sample prepared with a final concentration of 2 mg/mL was taken for oral administration. The preparation solvent was 0.5% Tween 80 in a 0.5% methylcellulose aqueous solution. After the preparation was complete, a 1N hydrochloric acid aqueous solution was added for adjustment to a clear solution (pH 4-5).
The dosage was 20.0 mg/kg and the dosage volume was 10.0 ml/kg.
At 15 min, 30 min, 1 h, 2 h, 4 h, 6 h, 8 h, 10 h, and 24 h after administration, at least 0.2 mL was taken from the vein (3 animals at each time point) and placed in an EDTA-K2 anticoagulation test tube. The blood sample was collected and then placed in a labeled ice-water bath centrifuge tube, and the plasma was quickly separated by centrifugation. The centrifugation conditions were as follows: 4000 revolutions/minute, 10 minutes, and 4°C. The plasma was stored at -40°C or lower for later testing. Feed supply was resumed 4 hours after administration.
Determination of the content of the compound to be detected in the plasma of ICR mice: After the plasma sample was thawed at room temperature, 50 µL was taken and added to 300 µL of (200 ng/mL, acetonitrile, terfenadine) internal standard, the mixture was vortexed and uniformly mixed for 1 min and then centrifuged at 4°C at 15400 g for 10 min. The supernatant was taken and injected for LC/MS/MS analysis.
The main pharmacokinetic parameters, such as AUC, Cmax and t1/2, were calculated by non-compartmental analysis (NCA) method using WinNonlin software.

Data set [2] concerns the target T1, CYP11A1 (Homo sapiens, UniProt P05108).
T1 construct: host or cells: NCI-H295R human adrenocortical cancer cells
T1 sequence (P05108 40-521): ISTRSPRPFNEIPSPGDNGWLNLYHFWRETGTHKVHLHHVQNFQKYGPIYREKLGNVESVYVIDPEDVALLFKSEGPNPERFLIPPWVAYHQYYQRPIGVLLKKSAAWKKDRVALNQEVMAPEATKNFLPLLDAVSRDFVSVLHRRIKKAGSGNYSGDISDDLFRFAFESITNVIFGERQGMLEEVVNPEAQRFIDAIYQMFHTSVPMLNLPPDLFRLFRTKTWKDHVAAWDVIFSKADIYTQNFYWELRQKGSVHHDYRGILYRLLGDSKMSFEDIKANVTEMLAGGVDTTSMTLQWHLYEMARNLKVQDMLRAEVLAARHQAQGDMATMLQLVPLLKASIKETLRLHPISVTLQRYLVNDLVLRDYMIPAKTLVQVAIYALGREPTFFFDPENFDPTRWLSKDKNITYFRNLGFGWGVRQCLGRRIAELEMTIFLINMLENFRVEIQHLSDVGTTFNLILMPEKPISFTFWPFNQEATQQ
Put plainly: Pregnenolone synthesis inhibition in NCI-H295R cells (pregnenolone ELISA of culture supernatant). It counts as cell-based. The settings on record: 24 hours incubation, pregnenolone in culture supernatant by ELISA. From the text: Conversion of cholesterol into pregnenolone is a first rate-limiting step in the synthesis of all steroid hormones in vertebrates. This conversion reaction involves a two-step continuous monooxygenation reaction catalyzed by the unique cytochrome P450scc (CYP11A) to produce C22-hydroxycholesterol and C20,C22-dihydroxycholesterol in order, followed by CYP11A1-catalyzed breakage of a C20-C22 carbon-carbon single bond in C20,C22-dihydroxycholesterol to produce one molecule of pregnenolone and one molecule of 4-methylvaleraldehyde. Therefore, the inhibitory effect of a compound on CYP11A1 was identified by detecting the ability of the compound to inhibit pregnenolone synthesis.
The ability of different compounds to inhibit pregnenolone biosynthesis was determined by detecting the concentration of pregnenolone (Abnova pregnenolone ELISA kit, KA1912) using enzyme-linked immunosorbent assay (ELISA), so as to detect the ability of the compounds to inhibit CYP11A1. […] In order to determine the half-maximal inhibitory concentrations (IC50) of CYP11A1 inhibition by different compounds, the compounds were added during NCI-H295R cell culture, and after incubation, the concentration of pregnenolone in the culture supernatant was determined.
95 µl of NCI-H295R cells were taken and cultured overnight with a specialized cell culture medium (Procell, CM-0399) in a 96-well culture plate in a cell incubator at 37°C and 5% CO2. 5 µl/well of a DMSO (Sigma, D8418) solution of the compounds to be tested at different concentrations was then added, followed by continued incubation for 24 hours. The final concentrations of the compounds to be tested were 1000 nM, 333.33 nM, 111.11 nM, 37.04 nM, 12.35 nM, 4.12 nM, 1.37 nM, 0.46 nM, and 0 nM. After the incubation was complete, the cells were centrifuged, 80 µl/well of the cell culture supernatant was obtained and 1 : 8 diluted with the cell culture medium, and the concentration of pregnenolone therein was then determined by ELISA method. During ELISA detection, a pregnenolone standard was used to generate a standard curve. The experiment was carried out with replicate wells. The ELISA well plate had been coated with an anti-pregnenolone rabbit polyclonal antibody. In ELISA plate strips, 50 µl/well of the diluted culture supernatant or standard solution or reference substance was added, followed by 100 µl of a pregnenolone-HRP complex solution, and the plate was incubated for 1 hour at room temperature on a plate shaker (QILINBEIER, QB-9002) at 200 rpm. Then, the plate was washed three times with a cleaning solution, with 300 µl each time, and patted dry on absorbent paper. 150 µl of a TMB substrate was added. The plate was incubated on the plate shaker for 10-15 minutes at room temperature, and 50 µl of a stop solution was then added. The absorbance was measured at 450 nm by a microplate reader (PerkinElmer, 2105). The IC50 value was calculated by using GraphPad Prism software. [formula]

Data set [3] deals with T1, CYP11A1. Put plainly: Testosterone synthesis inhibition in NCI-H295R cells (testosterone ELISA of culture supernatant). The format is cell-based. The settings on record: 24 hours incubation, testosterone in culture supernatant by ELISA. The protocol:
The ability of different compounds to inhibit testosterone biosynthesis was determined by detecting the concentration of testosterone (Abnova testosterone ELISA kit, KA6502) using enzyme-linked immunosorbent assay (ELISA), so as to detect the ability of the compounds to inhibit CYP11A1. In the experiment, similarly, the human adrenocortical cancer cell line NCI-H295R (Procell, CL-0399) was also used as an enzyme source. The compounds were added during NCI-H295R cell culture. After incubation, the concentration of testosterone in the culture supernatant was determined.
95 µl of NCI-H295R cells were taken and cultured overnight with a specialized cell culture medium (Procell, CM-0399) in a 96-well culture plate in a cell incubator at 37°C and 5% CO2. 5 µl/well of a DMSO (Sigma, D8418) solution of the compounds to be tested at different concentrations was then added, followed by continued incubation for 24 hours. The final concentrations of the compounds to be tested were 1000 nM, 333.33 nM, 111.11 nM, 37.04 nM, 12.35 nM, 4.12 nM, 1.37 nM, 0.46 nM, and 0 nM. After the incubation was complete, the cells were centrifuged, 80 µl/well of the cell culture supernatant was obtained, and the concentration of testosterone therein was determined by ELISA method. During ELISA detection, a testosterone standard was used to generate a standard curve. The experiment was carried out with replicate wells. The ELISA well plate had been coated with an anti-testosterone monoclonal antibody. In ELISA plate strips, 25 µl/well of the culture supernatant or standard solution or reference substance was added, followed by 200 µl of a testosterone-HRP complex solution, and the plate was incubated for 1 hour at room temperature on a plate shaker (QILINBEIER, QB-9002) at 200 rpm. Then, the plate was washed three times with a cleaning solution, with 300 µl each time, and patted dry on absorbent paper. 200 µl of a TMB substrate was added. The plate was incubated on the plate shaker for 15 minutes at room temperature, and 100 µl of a stop solution was then added. The absorbance was measured at 450 nm by a microplate reader (PerkinElmer, 2105). The IC50 value was calculated by using GraphPad Prism software. [formula]
(ELISA stands for enzyme-linked immunosorbent assay.)

With `CS(=O)(=O)N1CCC(COc2coc(CN3Cc4ccccc4C3)cc2=O)CC1` [Comparative Example 1, reference compound], in data set [1], the AUC(0-t) was 4330 ng·h/mL, the half-life is 1.87 h and the Cmax is 7950 ng/mL.

In turn, `Cn1c(CN2Cc3ccccc3C2)ccc(OCC2CCN(S(C)(=O)=O)CC2)c1=O` [Compound 1, 6-(isoindolin-2-ylmethyl)-1-methyl-3-((1-(methylsulfonyl)piperidine-4-yl)methoxy)pyridin-2(1H)-one] yielded an IC50 in data set [2] of 4.15 nM. The compound also displayed an IC50 in data set [3] of 17.7 nM. In addition, in data set [1], the AUC(0-t) is 9950 ng·h/mL, the half-life is 0.708 h and the Cmax was 9720 ng/mL.

Take `[2H]C([2H])([2H])n1c(CN2Cc3ccccc3C2)ccc(OCC2CCN(S(=O)(=O)C(F)(F)F)CC2)c1=O` [Compound 16, 6-(isoindolin-2-ylmethyl)-1-(methyl-d3)-3-((1-((trifluoromethyl)sulfonyl)piperidine-4-yl)methoxy)pyridin-2(1H)-one]: the IC50 was 1.03 nM in data set [2] and 40.2 nM in data set [3].

Consider `CCn1c(CN2Cc3ccccc3C2)ccc(OCC2CCN(S(C)(=O)=O)CC2)c1=O` [Compound 25, 1-ethyl-6-(isoindolin-2-ylmethyl)-3-((1-(methylsulfonyl)piperidine-4-yl)methoxy)pyridin-2(1H)-one], for which the results for the IC50 in data set [2] and in data set [3] were 1.56 nM and 3.78 nM, respectively.

`CCn1c(CN2Cc3ccccc3C2)ccc(OCC2CCN(S(=O)(=O)C3CC3)CC2)c1=O` [Compound 26, 3-((1-(cyclopropylsulfonyl)piperidine-4-yl)methoxy)-1-ethyl-6-(isoindolin-2-ylmethyl)pyridin-2(1H)-one]: the values for the IC50 in data set [2] and in data set [3] were 0.7 nM and 2.45 nM, respectively.

Regarding `CCn1c(CN2Cc3ccccc3C2)ccc(OCC2CCN(S(N)(=O)=O)CC2)c1=O` [Compound 28, 4-(((1-ethyl-6-(isoindolin-2-ylmethyl)-2-oxo-1,2-dihydropyridin-3-yl)oxy)methyl)piperidine-1-sulfonamide], the midpoint of inhibition in data set [2], the IC50, lay at 1.18 nM. This compound also had an IC50 in data set [3] of 7.02 nM. In data set [1], the AUC(0-t) turned out to be 13600 ng·h/mL, the half-life is 1.22 h and the Cmax was 5440 ng/mL.

As to `CCn1c(CN2Cc3ccccc3C2)ccc(OCC2CCN(S(=O)(=O)NS(N)(=O)=O)CC2)c1=O` [Compound 30, 4-(((1-ethyl-6-(isoindolin-2-ylmethyl)-2-oxo-1,2-dihydropyridin-3-yl)oxy)methyl)-N-sulfamoylpiperidine-1-sulfonamide], the IC50 in data set [2] was 0.648 nM; in data set [3], 4.04 nM.

Consider `CCn1c(CN2Cc3ccccc3C2)ccc(OCC2CCN(S(=O)(=O)O)CC2)c1=O` [Compound 31, 4-(((1-ethyl-6-(isoindolin-2-ylmethyl)-2-oxo-1,2-dihydropyridin-3-yl)oxy)methyl)piperidine-1-sulfonic acid], for which the 50% inhibitory concentration (IC50) in data set [3] is above 1000 nM.
